One test addresses T1, HA-tagged PA of FluB (Influenza B virus, UniProt Q9QLI9).
T1 construct: upstream of the initiation codon and antisense primers with a deleted stop codon; made in house; host or cells: human 293T cells, transiently transfected; unpurified cell lysate
In words: biochemical. It is filed as binding.

The next test concerns the target HA-tagged PA of FluA (Influenza A virus, UniProt Q2VC91). Briefly: biochemical. It is filed as binding.

Where no end group is shown, it is not given here.

T1 sequence (Q9QLI9 whole entry): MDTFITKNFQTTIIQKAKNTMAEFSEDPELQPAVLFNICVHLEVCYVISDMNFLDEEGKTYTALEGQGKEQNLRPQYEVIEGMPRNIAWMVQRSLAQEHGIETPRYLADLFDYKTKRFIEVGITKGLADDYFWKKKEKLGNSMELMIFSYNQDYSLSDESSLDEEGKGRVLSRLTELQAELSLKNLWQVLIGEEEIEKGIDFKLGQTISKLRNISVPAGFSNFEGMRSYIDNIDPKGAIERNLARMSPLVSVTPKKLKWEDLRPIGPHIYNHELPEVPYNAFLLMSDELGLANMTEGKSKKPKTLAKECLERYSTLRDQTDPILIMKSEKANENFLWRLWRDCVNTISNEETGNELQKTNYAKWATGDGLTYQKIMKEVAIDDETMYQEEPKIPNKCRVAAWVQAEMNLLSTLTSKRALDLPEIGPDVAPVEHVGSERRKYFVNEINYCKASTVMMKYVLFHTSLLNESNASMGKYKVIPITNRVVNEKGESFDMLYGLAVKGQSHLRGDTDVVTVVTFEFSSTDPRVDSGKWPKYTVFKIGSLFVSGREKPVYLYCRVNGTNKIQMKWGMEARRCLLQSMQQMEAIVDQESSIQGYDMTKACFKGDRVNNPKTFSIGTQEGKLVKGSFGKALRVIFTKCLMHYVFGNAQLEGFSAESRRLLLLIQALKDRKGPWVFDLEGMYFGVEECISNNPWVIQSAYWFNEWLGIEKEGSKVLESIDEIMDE

By IC50 is commonly meant the midpoint of a concentration-inhibition curve. Lower therefore signals greater potency. For MNINPYFLFIDVPIQ-NH2 [PB11-15 B], the IC50 at HA-tagged PA of FluB amounted to 45 nM. In other words, the double-digit nanomolar range.

MDVNPTLLFLK-NH2 [1–11] displayed an IC50 against HA-tagged PA of FluA of 900 nM.

For the compound `CSCC[C@H](N)C(=O)N[C@@H](CC(=O)O)C(=O)N[C@H](C(=O)N[C@@H](CC(N)=O)C(=O)N1CCC[C@H]1C(=O)N[C@H](C(=O)N[C@@H](CC(C)C)C(=O)N[C@@H](CC(C)C)C(=O)N[C@@H](Cc1ccccc1)C(=O)N[C@@H](CC(C)C)C(=O)N[C@@H](CCCCN)C(=O)N[C@H](C(=O)N1CCC[C@H]1C(=O)N[C@@H](C)C(=O)N[C@@H](CCC(N)=O)C(N)=O)C(C)C)[C@@H](C)O)C(C)C` [PB11-15 A], the IC50 on HA-tagged PA of FluB is > 3000 nM.

For the origin of these results see PMC2759517 (PLoS ONE, 2009).
